The values that follow come from patent publication US20240336628A1, “NOVEL COMPOUNDS, COMPOSITIONS, AND THERAPEUTIC USES THEREOF” (Breakpoint Therapeutics GmbH, priority 2023, published 2024).

This assay concerns the target T1, Polθ (truncated Polθ-Hel protein containing the helicase domain 67-894) (Homo sapiens, UniProt O75417).
T1 construct: a truncated Polθ protein (Polθ-Hel containing the helicase domain (67-894))
Put plainly: Polθ ATPase assay (Biological Assay 1, ADP-Glo luminescence). The format is biochemical. The following applies: Table B (Part B compounds); same assay as Biological Assay 1. As for the experimental part: The Polθ ATPase assay was used to evaluate inhibitors of Polθ ATPase activity, in vitro. Experiments were performed using a truncated Polθ protein (Polθ-Hel containing the helicase domain (67-894), ATP and a DNA single strand Oligo (5′-CTGTCCTGCATGATG-3′) in the Polθ assay buffer (20 mM Tis-HCl (pH 8.8), MgCl2 5 mM, tween20 0.01%, NP40 0.01%, BSA 0.01%, DTT 1 mM). 2 μL of assay buffer containing Pole-Hel protein (0.5 nM) and DNA substrate (500 nM) was transferred into assay ready plates, containing 0.04 μL of compounds diluted in DMSO. After a 30 minutes incubation at 23° C. in the dark, the reaction was triggered by adding 2 μL of ATP (60 μM), in assay buffer. After 60 minutes at 23° C., 4 μl of ADP-Glo™ Reagent (Glo 1) was added followed by 40 minutes of incubation, then 8 μl of ADP-Glom kinase Detection Reagent (Glo 2) followed by 60 minutes of incubation at 23° C. Luminescence was then measured using Tecan F200 infinite plate reader. Raw data were analysed using GeneData to generate IC50 values.
The Polθ ATPase assay described in Biological Assay 1 above was used to evaluate inhibitors of Polθ ATPase activity for the compounds described in the Experimental Part B above, in vitro.
Background: ADP-Glo turns the ADP formed in a reaction into a luminescent signal.

A word on the IC50: it is the point on the concentration scale where inhibition reaches its midpoint. A high value points to weaker potency.

The structures appear in SMILES notation. Some results are limits rather than exact numbers.

T1 sequence (O75417 67-894): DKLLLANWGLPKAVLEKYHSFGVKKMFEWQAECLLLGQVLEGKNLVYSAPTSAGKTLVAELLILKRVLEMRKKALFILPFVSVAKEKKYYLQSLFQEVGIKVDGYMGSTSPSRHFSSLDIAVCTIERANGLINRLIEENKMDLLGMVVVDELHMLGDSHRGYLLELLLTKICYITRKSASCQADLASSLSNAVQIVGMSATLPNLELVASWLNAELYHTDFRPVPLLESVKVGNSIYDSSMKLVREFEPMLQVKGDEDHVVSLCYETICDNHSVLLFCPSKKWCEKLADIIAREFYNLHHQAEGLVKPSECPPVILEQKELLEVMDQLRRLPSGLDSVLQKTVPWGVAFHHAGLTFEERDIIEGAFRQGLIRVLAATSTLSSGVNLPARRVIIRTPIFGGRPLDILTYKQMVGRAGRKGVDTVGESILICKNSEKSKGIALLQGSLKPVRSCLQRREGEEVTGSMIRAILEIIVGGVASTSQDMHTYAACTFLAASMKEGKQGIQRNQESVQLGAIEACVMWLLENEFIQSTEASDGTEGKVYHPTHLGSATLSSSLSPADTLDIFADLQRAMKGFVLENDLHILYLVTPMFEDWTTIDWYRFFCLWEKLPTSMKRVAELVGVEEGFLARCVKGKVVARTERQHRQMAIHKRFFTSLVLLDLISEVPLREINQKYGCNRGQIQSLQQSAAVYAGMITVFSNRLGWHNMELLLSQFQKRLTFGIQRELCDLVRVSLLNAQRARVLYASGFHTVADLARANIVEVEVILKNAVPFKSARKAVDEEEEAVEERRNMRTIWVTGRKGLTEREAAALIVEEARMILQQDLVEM

Consider `COc1cnc(Cl)cc1-c1cn(C)c(=O)cc1C(=O)Nc1nc2cnc(N3CCC(O)CC3)nc2s1` [Example 125], for which the IC50 was < 100 nM.
